Measurements as given in patent US8686049B2, “Agent for increasing testosterone level” (Tohoku University, priority 2006, dated 2014).

Experiments:
[1] = Weight and diet intake of rats on experimental diets, Example 2; assay type: in vivo, rat; settings: 75 mg/kg in diet, 35 days; for differences in weight: vs control dietary group (FIG. 5); for differences in diet intake: vs control dietary group (FIG. 6)
Experimental: (§1) As in Example 1, the experimental animals and breeding conditions were ordinary rats (Wistar/Std, eight-week-old males) bred in a breeding room set to a temperature of 23° C., humidity of 50±5%, and a 12-hour light/dark cycle in which lights were turned on at 8 AM and turned off at 8 PM.
(§2) The breeding period was 35 days. Blood was drawn from tail veins every week at 18 o'clock. Measurements of weight, diet intake, testis vitamin K content, testis testosterone concentration, and plasma testosterone concentration were taken. The analysis method was similar to that in Example 1.

[2] = Testis vitamin K concentration, Example 2; assay type: in vivo, rat; settings: rats, 75 mg/kg in diet, 35 days (FIG. 7), P<0.05
Experimental: as §1, §2
Data on testis vitamin K concentration and testosterone concentration was analyzed using the Tukey method. Analysis of changes over time in the blood testosterone concentrations was performed by two-way layout analysis of variance (repeated). In all cases, significant differences was P<0.05.

[3] = system: P450scc; assay: P450scc protein level in testis by Western blot, Example 1; assay type: in vivo; settings: rat testis, diet with MK-4 75 mg/kg for 35 days, vs control dietary group (FIG. 3)
Experimental: (§3) In the breeding method, preparatory breeding was performed in which the rats have free access to feed and water for three to five days. A commercially-available solid feed (product name: MR Labostock by Nosan Corp.) was used. Each experimental diet group includes four rats that were colony-bred in a wire mesh cage. After the preparatory breeding, the rats were fed respective experimental diets and bred for 35 days with free access to feed and water. Blood samples were taken, and testes were removed.
Testes of each of the above-described group that had been stored at −80° C. after dissection were used. Anti-P450scc antibodies were purchased from Chemicon International, Inc.
While being iced in 1 ml of 1× Phosphate buffered saline (PBS, including 10 μl of 100 mM phenyl methane sulfonyl fluoride [PMSF]), 0.2 g of testes were homogenized in the Polytron homogenizer (Biotron). […] A portion of the tissue homogenate was used to determine the quantity of protein. […]
One milliliter of ECLTM Western blotting detection reagent (Amersham Corp.) was poured over the entire membrane. […] Luminescent signals were picked up by an Las-1000 Imaging System (Fujifilm Corp.) and quantity was determined using ImageGauge (trademark) image processing software.
Protein concentration in the tissue homogenates was measured by the Bradford method. […]

[4] = Testis vitamin K analog concentration by HPLC-reduction fluorescence, Example 1 (35-day diet); assay type: in vivo, rat; settings: rats, diet with MK-4 75 mg/kg for 35 days, vs low K and control dietary groups (FIG. 1)
Experimental: Experimental animals: ordinary rats (Wistar/Std, eight-week-old males)
as §3
One gram of tissue was precisely measured and placed in a stoppered brown centrifuge tube. Two milliliters of 66% IPA solution was added. The sample was then homogenized in a Polytron homogenizer (Biotron) on ice. […]
The vitamin K homologues in the prepared HPLC sample are non-fluorescent, oxidized types. […] Quantities of the vitamin K groups were determined by an HPLC-reduction fluorescence method that measures fluorescence intensity of the sample. The vitamin K groups were determined as a relative value of MK-3 that was the internal standard.
In the method, the HPLC-reduction fluorescence method is used in which the non-fluorescent, oxidized type vitamin K groups become fluorescent, reduced types through use of the platinum catalyst column. The fluorescence intensity of the vitamin K groups was measured. […]

[5] = person per day; cited from earlier work

Row | Compound | differences in weight [1] | differences in diet intake [1] | testis MK-4 concentration [2] | P450scc protein level [3] | MK-4 concentration in the testes [4] | tolerable upper intake level [5] [mg]
1 | CC(C)=CCC/C(C)=C/CC/C(C)=C/CC/C(C)=C/CC1=C(C)C(=O)c2ccccc2C1=O [MK-4, menaquinone-4] | could not be observed | could not be observed | significantly increased | significantly higher | significantly high | –
2 | CC1=C(C/C=C(\C)CCC[C@H](C)CCC[C@H](C)CCCC(C)C)C(=O)c2ccccc2C1=O [vitamin K1, phylloquinone] | could not be observed | could not be observed | significantly increased | – | – | –
3 | Vitamin K | – | – | – | – | – | 30
